Article PMC10289957 (Investigational New Drugs, 2023)
Where two headings read alike, the source gives them in different places. Marks after values point to notes of the source that are not given here. Values belong to the compound of their own block, whether it stands above or below them.

Key:
preclinical models = test system: preclinical models; design: method as in PMID 29774094, PMID 33273059; conditions: cited from earlier work
[1] = test system: patients with advanced solid tumors; conditions: cited from earlier work
clinical = conditions: human, in vivo, Observed median time of maximum plasma concentration, range over dose levels
advanced solid tumors = conditions: MK-8353 300−400 mg twice daily, 3/15 patients; cited from earlier work
[2] = human, in vivo
[3] = test system: human cancer xenograft models; conditions: various human cancer xenograft models; cited from earlier work
[4] = Plasma pharmacokinetics after oral administration of the combination (noncompartmental); conditions: for AUC0−12 / AUC0−last / Cmax / tlast / tmax: plasma; for AUC0−12 / AUC0−last / Cmax: geometric mean (% geometric CV); for tlast / tmax: median (range)
patients = test system: patients; design: method as in PMID 30681641; conditions: cited from earlier work
advanced cancers = test system: advanced cancers; design: method as in PMID 25385055; conditions: selumetinib monotherapy, patients with advanced cancers; cited from earlier work
[5] = MK-8353 400 mg twice daily (MTD)
[6] = MK-8353 400 mg twice daily, n = 7
[7] = MK-8353 800 mg twice daily, 6 patients
[8] = cycle 1 Day 1, MK-8353 50 mg + selumetinib 25 mg oral BID
[9] = cycle 1 Day 1, MK-8353 100 mg + selumetinib 50 mg oral BID
[10] = cycle 1 Day 1, MK-8353 150 mg + selumetinib 75 mg oral BID
[11] = cycle 1 Day 4, MK-8353 50 mg + selumetinib 25 mg oral BID
[12] = cycle 1 Day 4, MK-8353 100 mg + selumetinib 50 mg oral BID
[13] = cycle 1 Day 4, MK-8353 150 mg + selumetinib 75 mg oral BID

SMILES: Cc1cccc(CN2C(=O)c3cc(-c4nc(Nc5ccnn5C)ncc4C)cn3C[C@@H]2C)n1 [AZ6197]
Antitumor activity of ERK inhibitor plus selumetinib versus each agent alone (preclinical models): greater antitumor activity versus each agent alone

SMILES: COC[C@H]1Cn2cc(-c3nc(Nc4ccnn4C)ncc3C)nc2C(=O)N1Cc1ccc(F)c(F)c1 [AZD0364]
Antitumor activity of ERK inhibitor plus selumetinib versus each agent alone (preclinical models): greater antitumor activity versus each agent alone

SMILES: CS[C@@]1(C(=O)Nc2ccc3[nH]nc(-c4ccc(OC(C)C)nc4)c3c2)CCN(CC(=O)N2CC=C(c3ccc(-c4ncn(C)n4)cc3)CC2)C1 [MK-8353]
Eye disorders [1, 5]: no eye disorders occurred
Macular rash [1, 5]: 1 n
Maculopapular rash [1, 5]: 3 n
Pruritus [1, 5]: 1 n
Urticaria [1, 5]: 1 n
Diarrhea [1, 6]: 2 n
Dyspepsia [1, 6]: 2 n
Nausea [1, 6]: 4 n
Vomiting [1, 6]: 2 n
Safety and tolerability ([1]; MK-8353 400 mg twice daily): safe and well tolerated
Blurred vision [1, 7]: 2 n
Visual impairment [1, 7]: 3 n
Vitreous floaters [1, 7]: 1 n
MTD of MK-8353 monotherapy [1]: 400 mg twice daily
tmax (clinical; cycle 1, all dose levels): 1.97 to 2.05 h
Patients with a partial response (advanced solid tumors): 20%
Accumulation at steady state [2]: ≤ 2 fold
Antitumor activity [3]: Antitumor activity of MK-8353 was demonstrated

Geometric mean minimum plasma concentration (Ctrough) ([4]; from lowest to highest dose): 8 to 26 nM
AUC0−12 [4, 8]: 0.161 (52.4) h∙µmol/L
AUC0−last [4, 8]: 0.144 (47.7) h∙µmol/L
Cmax [4, 8]: 43.7 nM
tlast [4, 8]: 8.02 (7.83–8.07) h
tmax [4, 8]: 1.88 (0.92–2.05) h
AUC0−12 [4, 9]: 0.344 (73.5)^l h∙µmol/L
AUC0−last [4, 9]: 0.261 (118.6) h∙µmol/L
Cmax [4, 9]: 93.5 nM
tlast [4, 9]: 8.00 (3.92–11.33) h
tmax [4, 9]: 1.02 (0.88–2.08) h
AUC0−12 [4, 10]: 0.690 (56.3)^j h∙µmol/L
AUC0−last [4, 10]: 0.547 (61.3) h∙µmol/L
Cmax [4, 10]: 158 nM
tlast [4, 10]: 8.00 (7.83–8.37) h
tmax [4, 10]: 1.92 (0.83–4.00) h
AUC0−12 [4, 11]: 0.230 (63.5) h∙µmol/L
AUC0−last [4, 11]: 0.202 (60.5) h∙µmol/L
Cmax [4, 11]: 56.3 nM
tlast [4, 11]: 8.05 (7.97–8.08) h
tmax [4, 11]: 1.88 (1.87–2.00) h
AUC0−12 [4, 12]: 0.386 (49.6)^k h∙µmol/L
AUC0−last [4, 12]: 0.267 (102.1) h∙µmol/L
Cmax [4, 12]: 72.4 nM
tlast [4, 12]: 8.00 (5.83–8.33) h
tmax [4, 12]: 1.96 (0.95–3.97) h
AUC0−12 [4, 13]: 0.681 (35.7)^k h∙µmol/L
AUC0−last [4, 13]: 0.486 (87.7)^f h∙µmol/L
Cmax [4, 13]: 97.7 nM
tlast [4, 13]: 8.00 (0.00–8.05)^h
tmax [4, 13]: 1.07 (0.00–5.92)^h
Accumulation at steady state ([4]; twice daily dosing): ≤ 2 fold
SMILES: O=C(NOCCO)c1cc2[nH]cnc2c(F)c1Nc1ccc(Br)cc1Cl [desmethyl selumetinib]

tmax (clinical): 1 to 1.96 h
Accumulation at steady state [2]: ≤ 2 fold
Geometric mean minimum plasma concentration (Ctrough) [2]: 0.101−0.456 µmol/L
Time of Cmax after dosing [2]: ≤ 2 h
SMILES: Cn1cnc2c(F)c(Nc3ccc(Br)cc3Cl)c(C(=O)NOCCO)cc21 [selumetinib]
Rates of treatment-related eye disorders (patients; selumetinib combination therapy with other agents (chemotherapies, targeted therapies)): up to 40%
Rates of treatment-related eye disorders (patients; selumetinib monotherapy, previous studies): 10−20%
Objective response rates (advanced cancers): up to 15%
